Where a SMILES comes first, the peptide text is derived from it.
Legend:
[1] = target: T1, Type-2 angiotensin II receptor (Rattus norvegicus, UniProt P35351); test: Inhibition of rat AT2 receptor
T1 sequence (P35351 whole entry): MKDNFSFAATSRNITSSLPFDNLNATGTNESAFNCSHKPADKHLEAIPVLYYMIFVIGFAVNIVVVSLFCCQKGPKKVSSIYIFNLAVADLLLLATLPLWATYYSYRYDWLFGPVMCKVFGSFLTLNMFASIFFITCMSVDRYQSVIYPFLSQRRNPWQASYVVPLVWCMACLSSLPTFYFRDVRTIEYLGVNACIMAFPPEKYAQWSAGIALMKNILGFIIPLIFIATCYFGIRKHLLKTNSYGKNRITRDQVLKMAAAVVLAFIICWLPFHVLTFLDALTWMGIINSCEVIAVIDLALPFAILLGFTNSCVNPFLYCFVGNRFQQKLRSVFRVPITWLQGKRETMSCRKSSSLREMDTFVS

[2] = target: T2, Type-1 angiotensin II receptor A (Rattus norvegicus, UniProt P25095); test: Inhibition of rat AT1 receptor
T2 sequence (P25095 whole entry): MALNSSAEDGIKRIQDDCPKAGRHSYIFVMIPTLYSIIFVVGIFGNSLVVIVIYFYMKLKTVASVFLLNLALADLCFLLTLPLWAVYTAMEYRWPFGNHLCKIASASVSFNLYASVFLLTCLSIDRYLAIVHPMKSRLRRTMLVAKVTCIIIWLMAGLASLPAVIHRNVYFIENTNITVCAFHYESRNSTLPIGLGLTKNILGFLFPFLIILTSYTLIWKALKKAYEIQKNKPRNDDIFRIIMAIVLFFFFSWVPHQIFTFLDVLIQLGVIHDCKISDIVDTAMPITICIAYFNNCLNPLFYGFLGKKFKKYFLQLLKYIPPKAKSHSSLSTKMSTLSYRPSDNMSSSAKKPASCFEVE

[3] = Displacement of [125I]Ang II from AT2 receptor in pig uterus membranes; assay type: cell membranes, Sus scrofa
[4] = target: T2, Type-1 angiotensin II receptor A; test: Displacement of [125I]Ang II from AT1 receptor in rat liver membranes; assay type: cell membranes
[5] = target: T3, Type-1 angiotensin II receptor (Homo sapiens, UniProt P30556); test: Inhibition of human AT1 receptor
T3 sequence (P30556 whole entry): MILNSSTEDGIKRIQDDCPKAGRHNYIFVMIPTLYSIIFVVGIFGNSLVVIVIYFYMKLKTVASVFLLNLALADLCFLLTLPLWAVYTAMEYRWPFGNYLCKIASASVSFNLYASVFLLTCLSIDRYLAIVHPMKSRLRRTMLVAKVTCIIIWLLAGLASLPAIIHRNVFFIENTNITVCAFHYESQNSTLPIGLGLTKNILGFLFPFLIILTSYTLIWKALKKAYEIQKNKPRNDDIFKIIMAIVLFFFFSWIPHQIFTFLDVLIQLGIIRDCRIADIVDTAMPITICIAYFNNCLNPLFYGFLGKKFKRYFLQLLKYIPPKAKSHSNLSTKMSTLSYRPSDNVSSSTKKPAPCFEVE

[6] = target: T4, Proto-oncogene Mas (Homo sapiens, UniProt P04201); test: Agonist activity at N-terminal c-Myc tagged human MasR expressed in HEK293T cells assessed as reduction in forskolin-induced cAMP accumulation; assay type: functional, cell-based
T4 sequence (P04201 whole entry): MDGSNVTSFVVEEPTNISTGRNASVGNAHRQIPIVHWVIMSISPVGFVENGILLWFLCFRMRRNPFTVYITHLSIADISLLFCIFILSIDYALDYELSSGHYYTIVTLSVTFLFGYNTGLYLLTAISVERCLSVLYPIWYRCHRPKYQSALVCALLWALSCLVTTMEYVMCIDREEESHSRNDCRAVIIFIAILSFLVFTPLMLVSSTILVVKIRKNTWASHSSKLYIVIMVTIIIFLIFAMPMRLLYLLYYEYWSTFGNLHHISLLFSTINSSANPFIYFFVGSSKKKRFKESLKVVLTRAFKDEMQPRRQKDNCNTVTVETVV

[7] = target: T4, Proto-oncogene Mas; test: Antagonist activity at N-terminal c-Myc tagged human MasR expressed in HEK293T cells by cAMP accumulation based assay; assay type: functional, cell-based
[8] = target: T2, Type-1 angiotensin II receptor A; test: Displacement of [125I]Ang II from AT1 receptor in rat SMC membranes incubated for 60 mins by gamma counting method; assay type: cell membranes

COc1ccc2c(c1OCc1ccccc1)CC(C(=O)O)N(C(=O)C(c1ccccc1)c1ccccc1)C2 (stereo not drawn)
IC50 [1]: 0.0752 µM
IC50 [2]: 2900 µM

CCCCOC(=O)NS(=O)(=O)c1sc(CC(C)C)cc1-c1ccc(Cn2c(CC)nc3c(C)cc(C)nc32)cc1
Ki [3]: 0.0028 µM
Ki [4]: 0.0039 µM

CCCCOC(=O)NS(=O)(=O)c1ccc(Cc2cccc(OC)c2)cc1-c1ccc(Cn2c(CC)nc3c(C)cc(C)nc32)cc1
IC50 [3]: 0.101 µM
IC50 [4]: 0.0014 µM

Cc1cc(Cn2cnc3c2C[C@@H](C(=O)O)N(C(=O)C(c2ccccc2)c2ccccc2)C3)ccc1N(C)C
Ki [5]: 0.012 µM

CCNC(=O)NS(=O)(=O)c1sc(CC(C)C)cc1-c1ccc(Cn2c(-c3ccccc3)nc(OC)c2C=O)cc1
IC50 [6]: 0.021 µM

COc1ccc2c(c1OCc1ccccc1)C[C@H](C(=O)O)N(C(=O)C(c1ccccc1)c1ccccc1)C2
IC50 [5]: 1.1 µM

CC[C@H](C)[C@H](NC(=O)[C@H](Cc1ccc(O)cc1)NC(=O)[C@@H](NC(=O)[C@H](CCCNC(=N)N)NC(=O)[C@@H](N)CC(=O)O)C(C)C)C(=O)N[C@@H](Cc1cnc[nH]1)C(=O)N[C@H](C)C(=O)O (HELM PEPTIDE1{D.R.V.Y.I.H.[dA]}$$$$V2.0)
IC50 [7]: 0.0003 µM

CC[C@H](C)[C@H](NC(=O)[C@@H]1CCCN1C(=O)[C@H](Cc1c[nH]cn1)NC(=O)[C@H](CCCCNC(=O)[C@H](CCCN=C(N)N)NC(=O)OCc1ccccc1)NC(=O)[C@H](Cc1ccc(O)cc1)NC(=O)c1cccnc1)C(=O)O (HELM PEPTIDE1{[O=C(c1cccnc1)[*:2]].Y.K.H.P.I}|PEPTIDE2{[O=C(OCc1ccccc1)[*:2]].R}$PEPTIDE1,PEPTIDE2,3:R3-2:R2$$$V2.0)
Ki [8]: 1.7 µM

CCCCOC(=O)NS(=O)(=O)c1sc(CC(C)C)cc1-c1ccc(Cn2ccnc2)cc1 [BULOXIBUTID]
Ki [4]: > 10 µM

COc1ccc2c(c1OCc1ccccc1)C[C@@H](C(=O)O)N(C(=O)C(c1ccccc1)c1ccccc1)C2 [OLODANRIGAN]
IC50 [5]: 0.039 µM
